Laboratory results from patent publication US5480885A, “Ergoline derivatives of 1-propinylamine, a process for the manufacture thereof and the use thereof for medicaments” (priority 1991, dated 1996).
“Also recorded” adds a separate entry of the source. Like-named read-outs stand apart in the source and are kept apart here.

Experiments:
[1] = molecular target: T1, isolated rabbit thoracic aorta (serotonin) (Oryctolagus cuniculus, UniProt G1SYA7); conditions: for mode of inhibition of serotonin constriction: in words
T1 construct: isolated rabbit thoracic aorta; from tissue; host or cells: isolated rabbit thoracic aorta

[2] = tested on: isolated rat uterus (serotonin); experiment: inhibition of serotonin-induced contractions of the isolated rat uterus; conditions: serotonin-induced contractions (serotonin 2.47×10^-8 M where printed)
uterus in rats = experiment: blocking of spontaneous uterus contractions in rats; conditions: Rattus norvegicus; 1000 ng/ml
Experimental: At a concentration of 1000 ng/ml it caused a 100% blocking of spontaneous uterus contractions in rats (see Jalon).

[3] = tested on: pentobarbital-anesthetized normotensive rats; experiment: blood pressure and heart rate in pentobarbital-anesthetized normotensive rats; type: in vivo, rat; conditions: 450 μg/kg i.v.; for maximum reduction in carotid artery pressure / reduction in heart rate: vs initial level
pithed rats = experiment: vasoconstriction / diastolic pressure in pithed rats (Gillespie); type: in vivo, rat; conditions: vs control
5-HT2 receptors = molecular target: T2, 5-HT2 receptors (Mus musculus, UniProt P35363); experiment: inhibition of the head twitch response after 5-HTP/carbidopa; type: in vivo, mice; conditions: ip, mice, 5-hydroxytryptophan/carbidopa, read-out: ID50, inhibition of head twitch response
T2 construct: The head twitch model in mice; from tissue; host or cells: living mice (central nervous system)
Experimental: The substance was injected 15 minutes prior to DL-5-HTP. The head twitch was recorded from 30 to 35 minutes after the DL-5-HTP injection (modified method according to Handley and Singh, Br. J. Pharmacol. 86, 297 (1985)).
The compound was injected 15 minutes prior to L-5-HTP (modified method according to Handley and Singh, Br. J. Pharmacol. 86, 297 (1985)).
The head twitch model in mice represents an experimental model for determining the hallucinogenic action of a compound (the method was described by Handley and Singh, Br.J.Pharmacol., 86, 297-303, 1985). It is believed that the response is conveyed via the 5-HT2 receptors.

pupil = experiment: dilatation of the pupil in mice (Pulewka); type: in vivo; conditions: 5 mg/kg i.p.; in words
[4] = molecular target: T3, 5-HT1A serotoninergic receptor (Homo sapiens, UniProt P08908); experiment: binding at [^3 H] 8-OH-DPAT binding site; conditions: for affinity to 5-HT1A receptor: [^3 H] 8-OH-DPAT, in words
T3 sequence (P08908 1-422): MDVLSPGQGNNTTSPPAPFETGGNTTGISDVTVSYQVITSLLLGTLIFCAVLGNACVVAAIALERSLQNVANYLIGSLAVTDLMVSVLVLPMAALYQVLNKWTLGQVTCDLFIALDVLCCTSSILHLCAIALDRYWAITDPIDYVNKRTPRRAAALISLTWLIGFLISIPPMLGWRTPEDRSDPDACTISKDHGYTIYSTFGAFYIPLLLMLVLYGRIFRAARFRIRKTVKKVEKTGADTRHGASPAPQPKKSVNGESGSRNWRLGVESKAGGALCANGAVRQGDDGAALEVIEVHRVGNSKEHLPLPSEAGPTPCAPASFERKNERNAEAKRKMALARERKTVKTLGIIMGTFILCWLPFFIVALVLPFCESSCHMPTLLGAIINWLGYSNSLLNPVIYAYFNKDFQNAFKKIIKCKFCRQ
From the text: (§1) Binding affinities of the compounds of Examples 1

[5] = molecular target: T3, 5-HT1A serotoninergic receptor; experiment: functional test, 5-HT1A serotoninergic receptor; conditions: in words
sigma receptor [6] = experiment: binding at [^3 H] DTG binding site; conditions: in words
sigma receptor [7] = experiment: functional test, sigma receptor; conditions: in words
5-HT2 receptor = 5-HT2 receptor (Homo sapiens, UniProt P28223); experiment: biochemical; type: binding; conditions: for affinity for 5-HT2 receptors: in words
From the text: as §1

D2 receptor = D2 receptor (Homo sapiens, UniProt P14416); experiment: binding, [^3 H]Raclopride; conditions: for Ki: D2, [^3 H]Raclopride; for affinity for D2 receptors: in words
From the text: as §1

5-HT1A receptors [8] = experiment: spontaneous tail-flicks in rats; type: in vivo, rat; conditions: 0.08 to 0.63 mg/kg s.c. (Example 1); 5.0 mg/kg s.c. (Example 2); in words
5-HT1A receptors [9] = experiment: inhibition of 8-OH-DPAT-caused spontaneous tail-flick in rats; type: in vivo, rat; conditions: in words
[10] = tested on: isolated rabbit thoracic aorta (noradrenaline); experiment: inhibition of the constrictive activity of noradrenaline on the isolated rabbit thoracic aorta
isolated rat uterus = experiment: uterotonic activity (isolated rat uterus); conditions: in words
[11] = blood pressure and heart rate in pentobarbital-anesthetized normotensive rats; type: in vivo, rat; conditions: rat, in vivo, iv; normotensive rats, pentobarbital-induced anesthesia; read-out: ED50, decrease of the mean arterial blood pressure
M1 muscarinic receptor [12] = experiment: binding at [^3 H] pirenzepine binding site; conditions: in words
M1 muscarinic receptor [13] = experiment: functional test, M1 muscarinic receptor; conditions: in words
[14] = tested on: isolated rabbit vena cava inferior; experiment: venous constriction on the isolated rabbit vena cava inferior; conditions: 1×10^-7 M; in words
[15] = tested on: isolated rabbit vena cava (noradrenaline); experiment: inhibition of noradrenaline venous constriction on the isolated rabbit vena cava; conditions: vs noradrenaline
[16] = tested on: urethane-anestetized normotensive rats; experiment: adrenaline-induced vasopressoric response in urethane-anesthetized normotensive rats; type: in vivo, rat; conditions: 450 μg/kg i.v.; adrenaline 10 μg/kg i.v.
Experimental: In urethane-anestetized normotensive rats the compound (450 μg/kg, i.v.) intensified the adrenaline (10 μg/kg, i.v.)-induced vasopressoric response.

D1 receptor = D1 receptor (Homo sapiens, UniProt P21728); experiment: binding, [^3 H]SCH23390
From the text: (§2) Binding affinities of the compounds of Examples 5

α1 receptor = experiment: binding, [^3 H]Prazosin
From the text: as §2

D2 receptors [17] = molecular target: T4, D2 receptors (Rattus norvegicus, UniProt P61169); experiment: apomorphine-induced locomotion; type: in vivo; conditions: sc, -45 min., apomorphine 0.4 mg/kg s.c., rats, read-out: ID50, apomorphine-induced locomotion
T4 construct: from tissue; host or cells: living rats (central nervous system)

D2 receptors [18] = molecular target: T5, D2 receptors (Mus musculus, UniProt P61168); experiment: apomorphine-induced climbing in mice; type: in vivo; conditions: ip, -30 min., apomorphine 1.5 mg/kg s.c., read-out: ID50, climbing behavior
T5 construct: from tissue; host or cells: living mice (central nervous system)
Experimental: The application of apomorphine in a dose of 1.5 mg/kg s.c. caused a characteristic climbing behavior in mice.

catalepsy in rats = type: in vivo, rat; conditions: rat, in vivo, sc; rats
Experimental: (§3) The s.c. application of the compounds of Example 5 (0.5 to 16 mg/kg) and of Example 8 (0.125 to 4 mg/kg), respectively, caused catalepsy in rats (the method was described by Morelli and Chiara, Europ. J. Pharmacol. 117, 179-185, 1985).

rats = experiment: catalepsy in rats; type: in vivo, rat; conditions: in words
Experimental: as §3

α1 receptors = experiment: noradrenaline-induced lethality in rats; type: in vivo, rat; conditions: s.c.
acetylcholine receptors = experiment: oxotremorine-induced tremor in mice; type: in vivo; conditions: 20 to 70 mg/kg i.p.; oxotremorine 1.5 mg/kg s.c.; in words
[19] = spontaneous motor activity in mice; type: in vivo; conditions: mouse, in vivo, ip; mice; read-out: ID50, inhibition of spontaneous motor activity
mice = experiment: spontaneous motor activity in mice; type: in vivo; conditions: two models (motor activity and pentobarbital anesthesia); vs haloperidol; in words
[20] = prolongation of pentobarbital-induced anesthesia in mice; conditions: mouse, in vivo, ip
[21] = overall antipsychotic action and side-effect profile (summary statements); type: in vivo; conditions: in words

T1 sequence (G1SYA7 entry or part of it): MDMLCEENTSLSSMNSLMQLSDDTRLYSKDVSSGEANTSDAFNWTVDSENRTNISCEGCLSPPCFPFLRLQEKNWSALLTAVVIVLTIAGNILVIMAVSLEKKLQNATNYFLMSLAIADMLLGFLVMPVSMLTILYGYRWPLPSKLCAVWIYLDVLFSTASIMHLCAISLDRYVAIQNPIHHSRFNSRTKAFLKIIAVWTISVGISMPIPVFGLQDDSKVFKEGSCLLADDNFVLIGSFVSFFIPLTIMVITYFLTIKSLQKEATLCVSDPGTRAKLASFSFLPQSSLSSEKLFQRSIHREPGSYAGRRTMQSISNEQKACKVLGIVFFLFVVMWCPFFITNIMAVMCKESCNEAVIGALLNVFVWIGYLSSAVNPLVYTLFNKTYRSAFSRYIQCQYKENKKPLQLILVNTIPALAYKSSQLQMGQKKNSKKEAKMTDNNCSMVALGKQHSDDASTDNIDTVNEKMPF
Sequence of 5-HT2 receptor (P28223 whole entry): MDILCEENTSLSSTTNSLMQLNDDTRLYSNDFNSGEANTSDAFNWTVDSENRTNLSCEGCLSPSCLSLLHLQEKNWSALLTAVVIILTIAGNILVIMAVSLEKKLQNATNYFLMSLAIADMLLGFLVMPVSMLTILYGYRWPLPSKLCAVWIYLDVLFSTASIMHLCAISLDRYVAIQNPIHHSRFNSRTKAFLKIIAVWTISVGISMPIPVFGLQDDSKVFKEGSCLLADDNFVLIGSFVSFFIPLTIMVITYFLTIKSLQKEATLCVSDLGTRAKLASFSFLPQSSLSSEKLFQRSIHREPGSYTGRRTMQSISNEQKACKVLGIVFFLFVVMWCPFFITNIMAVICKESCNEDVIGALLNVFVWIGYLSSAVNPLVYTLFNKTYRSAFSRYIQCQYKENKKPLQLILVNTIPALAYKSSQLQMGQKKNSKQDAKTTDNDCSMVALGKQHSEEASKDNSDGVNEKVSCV
Sequence of D2 receptor (P14416 whole entry): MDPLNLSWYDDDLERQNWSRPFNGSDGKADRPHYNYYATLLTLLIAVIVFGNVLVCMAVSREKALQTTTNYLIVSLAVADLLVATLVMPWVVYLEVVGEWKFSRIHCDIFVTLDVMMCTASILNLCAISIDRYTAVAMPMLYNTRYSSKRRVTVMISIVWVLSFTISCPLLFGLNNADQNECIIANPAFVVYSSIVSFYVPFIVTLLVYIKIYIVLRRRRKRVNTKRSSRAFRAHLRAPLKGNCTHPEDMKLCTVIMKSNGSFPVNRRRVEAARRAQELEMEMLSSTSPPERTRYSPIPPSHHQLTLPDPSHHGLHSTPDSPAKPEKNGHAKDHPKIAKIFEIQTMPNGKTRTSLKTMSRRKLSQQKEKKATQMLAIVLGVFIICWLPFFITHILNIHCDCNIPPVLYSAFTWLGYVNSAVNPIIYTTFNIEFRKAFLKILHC
Sequence of D1 receptor (P21728 whole entry): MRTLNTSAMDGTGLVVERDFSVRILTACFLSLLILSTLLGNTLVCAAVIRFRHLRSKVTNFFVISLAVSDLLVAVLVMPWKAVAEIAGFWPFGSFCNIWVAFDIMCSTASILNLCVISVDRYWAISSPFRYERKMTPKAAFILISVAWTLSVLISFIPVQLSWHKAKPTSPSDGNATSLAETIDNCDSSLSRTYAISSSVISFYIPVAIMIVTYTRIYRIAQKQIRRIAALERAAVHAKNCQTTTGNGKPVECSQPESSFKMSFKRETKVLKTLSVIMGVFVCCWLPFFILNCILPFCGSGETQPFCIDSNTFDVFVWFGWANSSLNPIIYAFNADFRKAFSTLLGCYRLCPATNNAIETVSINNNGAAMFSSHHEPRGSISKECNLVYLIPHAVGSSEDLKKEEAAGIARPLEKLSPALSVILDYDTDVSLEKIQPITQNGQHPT
T4 sequence (P61169 whole entry): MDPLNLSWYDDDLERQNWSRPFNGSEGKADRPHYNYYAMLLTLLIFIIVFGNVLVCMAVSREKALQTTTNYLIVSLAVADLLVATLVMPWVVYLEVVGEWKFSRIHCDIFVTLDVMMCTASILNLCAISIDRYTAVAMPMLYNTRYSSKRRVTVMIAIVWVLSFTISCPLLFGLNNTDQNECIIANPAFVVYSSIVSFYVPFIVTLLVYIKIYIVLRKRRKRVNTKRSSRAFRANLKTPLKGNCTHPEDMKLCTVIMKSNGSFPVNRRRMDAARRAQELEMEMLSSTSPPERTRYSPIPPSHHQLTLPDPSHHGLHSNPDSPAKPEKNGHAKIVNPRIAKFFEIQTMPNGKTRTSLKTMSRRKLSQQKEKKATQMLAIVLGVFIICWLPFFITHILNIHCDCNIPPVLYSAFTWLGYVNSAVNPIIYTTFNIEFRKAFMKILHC
T2 sequence (P35363 whole entry): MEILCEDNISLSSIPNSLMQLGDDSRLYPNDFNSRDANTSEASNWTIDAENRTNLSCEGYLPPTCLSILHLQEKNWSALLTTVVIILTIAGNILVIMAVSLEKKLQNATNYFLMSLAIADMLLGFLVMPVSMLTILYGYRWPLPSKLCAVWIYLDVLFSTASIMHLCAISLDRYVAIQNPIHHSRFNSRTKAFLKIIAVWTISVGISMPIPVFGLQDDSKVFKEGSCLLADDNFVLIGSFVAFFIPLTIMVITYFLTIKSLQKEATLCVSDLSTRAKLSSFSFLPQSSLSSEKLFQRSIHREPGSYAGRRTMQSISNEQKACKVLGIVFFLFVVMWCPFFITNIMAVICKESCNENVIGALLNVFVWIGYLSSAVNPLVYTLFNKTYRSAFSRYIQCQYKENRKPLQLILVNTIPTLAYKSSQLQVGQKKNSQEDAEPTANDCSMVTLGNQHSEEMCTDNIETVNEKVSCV
T5 sequence (P61168 whole entry): as the sequence (P61169 whole entry) above, with A29P counted along it

## C#CCNC(=O)[C@@H]1C=C2c3cccc4[nH]c(Br)c(c34)C[C@H]2N(C)C1 [Example 2, 2-Bromo-9,10-didehydro-N-(2'-propinyl)-6-methylergoline-8β-carboxamide]
[1]
  mode of inhibition of serotonin constriction: competitively inhibited
[1]; vs serotonin, read-out: pA2 (converted)
  Kb: 7.41 nM
[2]
  IC50: 26.9 nM
Uterus in rats
  inhibition at 1 µg/mL: 100%
[3]
  duration of the transient effect: up to 20 minutes
  maximum reduction in carotid artery pressure: 15%
  reduction in heart rate: 5%
Pithed rats; 450 μg/kg i.p.
  mean increase of the diastolic pressure: 20%
5-HT2 receptors
  ED50: 8.2 mg/kg
pupil
  dilatation of the pupil: marked dilatation of the pupil
[4]; 5-HT1A, [^3 H]8-OH-DPAT
  Ki: 206 nM
[4]
  affinity to 5-HT1A receptor: somewhat lower affinity; also recorded: possessed affinity
[5]
  functional activity at 5-HT1A: did not indicate any activity
Sigma receptor [6]
  affinity to sigma receptor: possessed affinity
Sigma receptor [7]
  functional activity at sigma receptor: indicated an antagonistic activity
5-HT2 receptor; 5-HT2, [^3 H]Ketanserin, read-out: Ki
  Ki: 90 nM
5-HT2 receptor
  affinity for 5-HT2 receptors: high affinity
D2 receptor
  Ki: 44 nM
  affinity for D2 receptors: high affinity
5-HT1A receptors [8]
  spontaneous tail-flick: did not cause a spontaneous tail-flick in rats
5-HT1A receptors [9]; 0.63 to 5.0 mg/kg s.c., 8-OH-DPAT 2.5 mg/kg s.c.
  inhibition of 8-OH-DPAT-caused spontaneous tail-flick: strongly inhibit the spontaneous tail-flick in rats
5-HT1A receptors [9]
  effect in tail-flick inhibition model compared with buspirone: very similar to that of buspirone

## C#CCN(C)C[C@@H]1C=C2c3cccc4[nH]cc(c34)C[C@H]2N(C)C1 [Example 8]
[1]
  Kb: 0.741 nM
  mode of inhibition of serotonin constriction: competitively inhibited
[10]; in words
  mode of inhibition of noradrenaline constriction: competitively inhibited
[10]; vs noradrenaline
  pA2: 6.39
[2]
  IC50: 1.85 nM
Isolated rat uterus
  uterotonic activity: no uterotonic activity
[11]
  ED50: 0.37 mg/kg
[3]; in words
  effect on carotid artery pressure: strong and sustained decrease in carotid artery pressure
[3]
  maximum reduction in carotid artery pressure: 20%
  reduction in heart rate: less than 20%
Pithed rats; 450 μg/kg i.v.
  mean increase in diastolic pressure: 20%
pupil
  dilatation of the pupil: strong dilatation of the pupil
[4]
  affinity to 5-HT1A receptor: possessed affinity
[5]
  functional activity at 5-HT1A: did not indicate any activity
Sigma receptor [6]
  affinity to sigma receptor: possessed affinity
Sigma receptor [7]
  functional activity at sigma receptor: indicated an antagonistic activity
M1 muscarinic receptor [12]
  affinity to M1 muscarinic receptor: possessed affinity
M1 muscarinic receptor [13]
  functional activity at M1 muscarinic receptor: indicated an antagonistic activity
[14]
  venous constriction: minimal venous constriction
[15]
  pA2: 6.63
[16]
  effect on adrenaline-induced vasopressoric response: intensified
5-HT2 receptor
  Ki: 10 nM
  affinity for 5-HT2 receptors: high affinity
D2 receptor
  Ki: 3.8 nM
  affinity for D2 receptors: high affinity
D1 receptor; D1, [^3 H]SCH23390
  Ki: 87 nM
D1 receptor; in words
  affinity for D1 receptors: lower
α1 receptor; in words
  affinity for α1 receptors: lower
α1 receptor; α1, [^3 H]Prazosin
  Ki: 245 nM
D2 receptors [17]
  ED50: 0.089 mg/kg
D2 receptors [18]
  ED50: 0.44 mg/kg
Catalepsy in rats
  ED50: 0.29 mg/kg
rats
  cataleptic action compared with haloperidole: lesser than the action caused by the typical antipsychotic haloperidole
α1 receptors
  ID50, noradrenaline-induced lethality: 3.75 mg/kg
Acetylcholine receptors
  inhibition of oxotremorine-induced tremor: dose-dependent inhibition
[19]
  ED50: 8.4 mg/kg
mice
  depressant action on the level of CNS: several times lower depressant action on the level of CNS if compared with haloperidol
[20]
  ED50: 17.1 mg/kg
[21]
  antipsychotic action: strongest antipsychotic action
  side effect liability: lesser degree of probability of the development of extrapyramidal, central depressant and hypotensive side effects
